This is an account of results in ChEMBL document CHEMBL5465560, “Selectivity Literature for EUbOPEN Chemogenomic Library” (2024).

Experiment [1] has as its target T1, Serine/threonine-protein kinase Nek11 (Homo sapiens) (UniProt Q8NG66).
T1 sequence (whole entry): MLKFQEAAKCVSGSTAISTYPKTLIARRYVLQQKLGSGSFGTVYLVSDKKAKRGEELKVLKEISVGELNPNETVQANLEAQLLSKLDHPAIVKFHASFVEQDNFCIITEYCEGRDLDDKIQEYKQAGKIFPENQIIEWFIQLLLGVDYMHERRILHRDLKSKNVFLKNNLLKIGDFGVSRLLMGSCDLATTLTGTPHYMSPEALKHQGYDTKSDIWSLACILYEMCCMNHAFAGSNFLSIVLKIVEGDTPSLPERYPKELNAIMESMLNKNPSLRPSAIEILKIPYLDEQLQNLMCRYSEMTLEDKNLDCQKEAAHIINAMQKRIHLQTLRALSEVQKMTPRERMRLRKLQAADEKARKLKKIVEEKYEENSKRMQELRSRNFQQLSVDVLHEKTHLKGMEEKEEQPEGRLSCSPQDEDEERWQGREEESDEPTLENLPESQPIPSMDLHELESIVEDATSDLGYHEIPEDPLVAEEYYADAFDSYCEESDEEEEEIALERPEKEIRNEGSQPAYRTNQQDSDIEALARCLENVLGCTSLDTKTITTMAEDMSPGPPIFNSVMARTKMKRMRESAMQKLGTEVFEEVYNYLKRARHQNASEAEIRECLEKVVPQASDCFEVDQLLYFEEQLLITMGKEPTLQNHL
The settings on record: at 10 µM.

Experiment [2] deals with T2, Mitogen-activated protein kinase kinase kinase 6 (Homo sapiens) (UniProt O95382).
T2 sequence (whole entry): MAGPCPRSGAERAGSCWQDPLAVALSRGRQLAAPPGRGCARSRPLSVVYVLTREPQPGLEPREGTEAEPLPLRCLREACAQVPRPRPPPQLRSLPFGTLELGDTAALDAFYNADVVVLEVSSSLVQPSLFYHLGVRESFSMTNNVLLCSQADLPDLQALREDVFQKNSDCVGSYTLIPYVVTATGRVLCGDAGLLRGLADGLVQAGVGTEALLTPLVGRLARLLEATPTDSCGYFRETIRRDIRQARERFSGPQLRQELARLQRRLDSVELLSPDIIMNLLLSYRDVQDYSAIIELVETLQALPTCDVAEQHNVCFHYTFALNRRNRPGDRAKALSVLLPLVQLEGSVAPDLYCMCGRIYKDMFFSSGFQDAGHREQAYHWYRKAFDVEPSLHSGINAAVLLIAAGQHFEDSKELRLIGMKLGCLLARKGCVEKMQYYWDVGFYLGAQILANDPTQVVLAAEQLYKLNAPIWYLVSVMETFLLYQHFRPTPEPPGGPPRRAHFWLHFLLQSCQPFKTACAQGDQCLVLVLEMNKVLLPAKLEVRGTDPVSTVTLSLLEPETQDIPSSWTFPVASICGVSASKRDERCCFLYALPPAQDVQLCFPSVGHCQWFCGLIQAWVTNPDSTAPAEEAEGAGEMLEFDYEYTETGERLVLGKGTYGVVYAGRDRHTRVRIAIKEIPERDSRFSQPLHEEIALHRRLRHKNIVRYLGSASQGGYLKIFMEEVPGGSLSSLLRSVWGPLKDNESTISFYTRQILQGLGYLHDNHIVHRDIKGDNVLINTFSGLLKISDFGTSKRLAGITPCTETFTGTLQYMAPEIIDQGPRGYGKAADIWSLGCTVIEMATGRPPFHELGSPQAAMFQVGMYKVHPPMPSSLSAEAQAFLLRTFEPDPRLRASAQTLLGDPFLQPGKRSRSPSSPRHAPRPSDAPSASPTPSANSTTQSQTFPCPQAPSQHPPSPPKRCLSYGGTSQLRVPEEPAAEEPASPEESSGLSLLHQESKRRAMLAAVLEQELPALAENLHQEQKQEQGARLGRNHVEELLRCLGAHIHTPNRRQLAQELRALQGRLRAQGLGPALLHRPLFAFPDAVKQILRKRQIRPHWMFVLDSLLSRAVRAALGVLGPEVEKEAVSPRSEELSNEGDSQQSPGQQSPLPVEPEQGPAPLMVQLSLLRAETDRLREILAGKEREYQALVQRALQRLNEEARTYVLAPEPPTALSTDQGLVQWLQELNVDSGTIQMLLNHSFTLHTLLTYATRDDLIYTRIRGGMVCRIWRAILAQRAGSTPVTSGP
The note with it: at 10 µM.

The target of experiment [3] is RAF proto-oncogene serine/threonine-protein kinase (Homo sapiens) (UniProt P04049). Briefly: Selectivity interaction (Ambit KINOMEscan and KiNATiv profiling in Jurkat cells) EUB0000090b RAF1. Format: cell-based. The note with it: at 1 µM.
The target of experiment [4] is Glutamate receptor ionotropic, NMDA 1 (Homo sapiens) (UniProt Q05586). Briefly: Selectivity interaction (Panel of kinases, GPCRs, ion channels and transporters (enzymatic assay)) EUB0000223bCl GRIN1.
For experiment [5], the target named is T3, Mitogen-activated protein kinase 13 (Homo sapiens) (UniProt O15264).
T3 sequence (whole entry): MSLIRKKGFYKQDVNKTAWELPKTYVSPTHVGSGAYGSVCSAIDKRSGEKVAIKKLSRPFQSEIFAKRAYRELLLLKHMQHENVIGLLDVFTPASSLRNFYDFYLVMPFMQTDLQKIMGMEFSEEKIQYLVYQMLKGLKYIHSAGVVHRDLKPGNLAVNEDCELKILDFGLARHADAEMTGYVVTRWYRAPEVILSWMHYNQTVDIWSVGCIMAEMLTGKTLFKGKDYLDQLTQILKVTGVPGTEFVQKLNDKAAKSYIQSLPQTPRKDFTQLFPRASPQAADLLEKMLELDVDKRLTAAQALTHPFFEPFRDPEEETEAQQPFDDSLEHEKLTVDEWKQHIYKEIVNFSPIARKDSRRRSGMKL
Briefly: Selectivity interaction (Kinase screening (Upstate/Millipore)) EUB0000604a MAPK13.

The target in the next experiment is Insulin receptor (Homo sapiens, UniProt P06213). Briefly: Selectivity interaction (KinomeScan (DiscoverX)) EUB0000666a INSR. The note with it: at 10 µM.
The target in experiment [6] is Serine/threonine-protein kinase MARK2 (Homo sapiens) (UniProt Q7KZI7). Briefly: Selectivity interaction (ActivX KiNativ screen (kinase selectivity in THP-1 cell lysates)) EUB0000639a MARK2. The experiment is classed as subcellular. The settings on record: lysate, at 0.01 µM.
The target of experiment [7] is Hepatocyte growth factor receptor (Homo sapiens, UniProt P08581). The experiment in a line: Selectivity interaction (Kinase panel (Invitrogen)) EUB0000639a MET. The settings on record: at 200 nM.
The target of experiment [8] is Tyrosine-protein kinase JAK1 (Homo sapiens, UniProt P23458). Briefly: Selectivity interaction (ActivX KiNativ screen (kinase selectivity in THP-1 cell lysates)) EUB0000639a JAK1. The note with it: lysate. The experiment is classed as subcellular.
For experiment [9], the target named is Mitogen-activated protein kinase kinase kinase kinase 5 (Homo sapiens) (UniProt Q9Y4K4). Briefly: Selectivity interaction (KinomeScan (DiscoverX)) EUB0000229b MAP4K5. The settings on record: at 10 µM.

Molecules are shown by their SMILES.

Sequence of Tyrosine-protein kinase JAK1 (P23458 whole entry): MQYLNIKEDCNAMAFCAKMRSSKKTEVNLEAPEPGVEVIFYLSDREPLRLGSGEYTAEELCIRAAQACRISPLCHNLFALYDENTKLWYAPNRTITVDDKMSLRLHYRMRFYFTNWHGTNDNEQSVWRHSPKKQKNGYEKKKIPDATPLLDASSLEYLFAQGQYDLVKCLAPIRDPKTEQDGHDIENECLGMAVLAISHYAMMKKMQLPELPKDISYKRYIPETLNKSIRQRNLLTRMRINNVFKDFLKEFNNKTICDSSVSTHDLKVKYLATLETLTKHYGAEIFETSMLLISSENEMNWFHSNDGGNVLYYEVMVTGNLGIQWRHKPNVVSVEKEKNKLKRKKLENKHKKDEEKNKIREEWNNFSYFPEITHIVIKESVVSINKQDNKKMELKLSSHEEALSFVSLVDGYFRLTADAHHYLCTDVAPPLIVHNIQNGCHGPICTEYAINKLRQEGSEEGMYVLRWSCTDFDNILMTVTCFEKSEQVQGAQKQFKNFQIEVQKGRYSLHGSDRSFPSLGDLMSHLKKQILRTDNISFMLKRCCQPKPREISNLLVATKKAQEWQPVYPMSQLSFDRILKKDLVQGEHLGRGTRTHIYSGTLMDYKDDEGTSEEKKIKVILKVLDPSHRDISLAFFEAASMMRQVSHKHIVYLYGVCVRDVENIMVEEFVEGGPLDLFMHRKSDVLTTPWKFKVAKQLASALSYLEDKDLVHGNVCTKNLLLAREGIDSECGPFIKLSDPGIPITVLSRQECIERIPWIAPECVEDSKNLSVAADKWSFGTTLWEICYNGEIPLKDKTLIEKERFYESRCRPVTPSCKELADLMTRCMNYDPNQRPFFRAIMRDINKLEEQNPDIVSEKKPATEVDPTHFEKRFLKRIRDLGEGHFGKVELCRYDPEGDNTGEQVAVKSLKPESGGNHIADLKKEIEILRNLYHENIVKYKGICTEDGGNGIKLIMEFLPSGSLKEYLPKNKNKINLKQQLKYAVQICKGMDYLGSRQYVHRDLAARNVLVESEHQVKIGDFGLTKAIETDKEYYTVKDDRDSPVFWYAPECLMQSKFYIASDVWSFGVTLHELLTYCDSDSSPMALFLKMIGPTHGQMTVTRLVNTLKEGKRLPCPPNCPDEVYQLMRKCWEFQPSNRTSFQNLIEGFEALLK
Sequence of Mitogen-activated protein kinase kinase kinase kinase 5 (Homo sapiens) (Q9Y4K4 whole entry, looked up): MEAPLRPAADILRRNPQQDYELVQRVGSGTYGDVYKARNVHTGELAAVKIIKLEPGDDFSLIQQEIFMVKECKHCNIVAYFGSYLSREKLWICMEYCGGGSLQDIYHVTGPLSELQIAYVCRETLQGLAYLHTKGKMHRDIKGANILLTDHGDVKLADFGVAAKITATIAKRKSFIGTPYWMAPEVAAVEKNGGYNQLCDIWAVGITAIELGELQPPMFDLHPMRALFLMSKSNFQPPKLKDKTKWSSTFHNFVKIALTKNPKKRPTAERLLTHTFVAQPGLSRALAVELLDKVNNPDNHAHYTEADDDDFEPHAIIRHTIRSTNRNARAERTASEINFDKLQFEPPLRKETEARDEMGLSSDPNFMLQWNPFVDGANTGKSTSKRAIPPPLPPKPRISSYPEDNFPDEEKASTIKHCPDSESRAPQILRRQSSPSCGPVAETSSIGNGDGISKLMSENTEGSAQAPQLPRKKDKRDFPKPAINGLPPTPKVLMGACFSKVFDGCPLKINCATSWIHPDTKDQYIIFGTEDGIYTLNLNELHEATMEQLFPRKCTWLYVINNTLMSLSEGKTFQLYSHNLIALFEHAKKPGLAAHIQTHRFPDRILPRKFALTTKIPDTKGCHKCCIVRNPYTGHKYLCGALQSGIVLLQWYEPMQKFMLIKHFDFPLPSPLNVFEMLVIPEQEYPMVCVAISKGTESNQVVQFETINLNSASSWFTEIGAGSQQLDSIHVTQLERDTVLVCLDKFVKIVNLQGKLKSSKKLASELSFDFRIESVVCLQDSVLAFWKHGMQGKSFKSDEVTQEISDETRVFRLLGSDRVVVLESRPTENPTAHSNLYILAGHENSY
Sequence of RAF proto-oncogene serine/threonine-protein kinase (Homo sapiens) (P04049 whole entry): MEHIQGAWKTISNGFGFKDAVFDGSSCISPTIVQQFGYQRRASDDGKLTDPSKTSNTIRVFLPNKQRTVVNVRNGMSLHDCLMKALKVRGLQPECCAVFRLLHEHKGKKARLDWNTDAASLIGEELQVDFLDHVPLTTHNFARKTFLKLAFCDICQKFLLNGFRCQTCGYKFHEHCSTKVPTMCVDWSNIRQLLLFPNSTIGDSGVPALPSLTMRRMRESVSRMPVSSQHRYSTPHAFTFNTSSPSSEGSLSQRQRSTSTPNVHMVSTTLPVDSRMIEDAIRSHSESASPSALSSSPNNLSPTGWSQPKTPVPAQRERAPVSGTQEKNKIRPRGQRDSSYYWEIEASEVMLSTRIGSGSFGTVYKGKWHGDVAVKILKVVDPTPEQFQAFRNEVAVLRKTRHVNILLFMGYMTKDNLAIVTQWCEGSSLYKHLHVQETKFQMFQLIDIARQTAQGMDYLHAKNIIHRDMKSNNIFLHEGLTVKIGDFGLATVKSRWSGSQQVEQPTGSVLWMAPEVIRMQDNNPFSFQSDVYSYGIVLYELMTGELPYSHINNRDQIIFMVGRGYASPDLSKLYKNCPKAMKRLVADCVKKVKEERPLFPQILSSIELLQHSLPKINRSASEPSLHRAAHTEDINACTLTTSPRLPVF
Sequence of Insulin receptor (P06213 28-758 limits assumed): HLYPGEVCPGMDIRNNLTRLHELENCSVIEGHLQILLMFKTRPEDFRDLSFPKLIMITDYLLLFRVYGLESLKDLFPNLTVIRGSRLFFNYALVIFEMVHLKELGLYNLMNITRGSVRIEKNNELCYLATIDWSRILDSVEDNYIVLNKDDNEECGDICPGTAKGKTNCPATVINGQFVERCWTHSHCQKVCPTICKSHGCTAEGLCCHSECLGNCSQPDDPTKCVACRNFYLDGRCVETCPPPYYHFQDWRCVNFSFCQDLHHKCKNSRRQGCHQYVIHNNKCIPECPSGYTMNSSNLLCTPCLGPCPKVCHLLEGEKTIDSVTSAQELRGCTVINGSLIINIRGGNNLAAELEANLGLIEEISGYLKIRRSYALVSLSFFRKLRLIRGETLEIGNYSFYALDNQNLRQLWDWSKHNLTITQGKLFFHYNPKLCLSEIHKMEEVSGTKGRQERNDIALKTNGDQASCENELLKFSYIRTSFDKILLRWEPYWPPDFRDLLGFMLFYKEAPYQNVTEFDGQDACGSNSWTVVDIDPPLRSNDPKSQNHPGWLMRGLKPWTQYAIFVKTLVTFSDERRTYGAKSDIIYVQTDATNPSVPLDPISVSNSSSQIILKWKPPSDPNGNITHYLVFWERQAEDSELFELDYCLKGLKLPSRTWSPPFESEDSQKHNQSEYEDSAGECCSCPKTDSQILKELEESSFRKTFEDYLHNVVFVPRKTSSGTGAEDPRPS
Sequence of Insulin receptor (P06213 763-1382 limits assumed): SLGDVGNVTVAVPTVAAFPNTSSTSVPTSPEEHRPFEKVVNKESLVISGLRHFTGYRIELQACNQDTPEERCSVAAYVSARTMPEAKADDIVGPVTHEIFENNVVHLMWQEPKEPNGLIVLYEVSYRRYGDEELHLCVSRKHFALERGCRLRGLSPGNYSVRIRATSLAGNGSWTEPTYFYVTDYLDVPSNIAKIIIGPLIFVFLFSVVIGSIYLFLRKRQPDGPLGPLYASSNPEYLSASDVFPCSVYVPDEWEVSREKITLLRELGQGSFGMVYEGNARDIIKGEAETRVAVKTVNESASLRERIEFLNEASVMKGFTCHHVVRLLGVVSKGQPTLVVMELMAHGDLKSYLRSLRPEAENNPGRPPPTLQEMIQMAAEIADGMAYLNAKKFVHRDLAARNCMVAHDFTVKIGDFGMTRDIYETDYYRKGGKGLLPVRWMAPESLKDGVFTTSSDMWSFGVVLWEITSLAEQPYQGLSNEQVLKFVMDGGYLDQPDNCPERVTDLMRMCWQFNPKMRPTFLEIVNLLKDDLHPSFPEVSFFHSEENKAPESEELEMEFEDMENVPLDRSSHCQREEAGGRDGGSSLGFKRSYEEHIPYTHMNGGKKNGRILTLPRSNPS
Sequence of Serine/threonine-protein kinase MARK2 (Homo sapiens) (Q7KZI7 whole entry): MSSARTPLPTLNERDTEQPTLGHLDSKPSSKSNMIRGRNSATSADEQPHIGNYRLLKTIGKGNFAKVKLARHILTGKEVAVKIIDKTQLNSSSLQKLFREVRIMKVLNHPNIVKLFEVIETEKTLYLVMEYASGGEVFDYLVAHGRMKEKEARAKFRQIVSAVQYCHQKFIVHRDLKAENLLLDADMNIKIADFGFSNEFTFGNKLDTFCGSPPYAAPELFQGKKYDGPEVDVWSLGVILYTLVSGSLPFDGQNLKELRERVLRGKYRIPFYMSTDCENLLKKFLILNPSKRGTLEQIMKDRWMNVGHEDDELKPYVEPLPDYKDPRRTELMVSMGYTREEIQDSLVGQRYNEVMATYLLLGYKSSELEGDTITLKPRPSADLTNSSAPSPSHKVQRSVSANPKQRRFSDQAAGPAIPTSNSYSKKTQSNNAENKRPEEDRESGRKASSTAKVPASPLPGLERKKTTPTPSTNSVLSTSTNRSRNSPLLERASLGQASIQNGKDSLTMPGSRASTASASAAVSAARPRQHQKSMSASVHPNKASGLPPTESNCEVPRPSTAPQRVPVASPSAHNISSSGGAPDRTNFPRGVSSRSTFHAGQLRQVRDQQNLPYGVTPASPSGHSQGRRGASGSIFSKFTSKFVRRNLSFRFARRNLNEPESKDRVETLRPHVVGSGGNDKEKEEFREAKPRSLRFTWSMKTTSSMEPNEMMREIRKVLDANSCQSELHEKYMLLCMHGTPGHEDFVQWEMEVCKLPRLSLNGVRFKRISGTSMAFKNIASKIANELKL

For `Cc1cc([C@@H](C)Nc2ccccc2C(=O)O)c2nc(N3CCOCC3)cc(=O)n2c1` [AZD-6482], the % of control in experiment [1] worked out at 100%; in experiment [2], 95%.

As for `CN(C)C/C=C/C(=O)Nc1ccc(C(=O)N2CCCC(Nc3ncc(Cl)c(-c4c[nH]c5ccccc45)n3)C2)cc1` (centres undefined), in [3], the % of control is 91%.

Consider `COc1cc(C(=O)N2CC[C@@H](O)[C@@H](N)C2)cc2nc(-c3cc4ccccc4n3CC3CC3)n(C)c12`, for which the pXC50 in experiment [4] is 4.8 M.

As to `Cc1cnc(Nc2ccc(F)cc2Cl)nc1-c1c[nH]c(C(=O)N[C@H](CO)c2cccc(Cl)c2)c1`, in experiment [5], the % of inhibition turned out to be 54%.

Compound `O=C(NOC[C@H](O)CO)c1ccc(F)c(F)c1Nc1ccc(I)cc1F` showed a % of control on Insulin receptor of 92%.

For the compound `CC[C@@H]1[C@H](F)C(=O)N[C@@H]1COc1nccc2cc(C(N)=O)c(OC)cc12` [ZIMLOVISERTIB], the % of inhibition in [6] was determined as 2.3%; in experiment [7], 2.16%; in experiment [8] (at 0.01 µM) it was 18%; in experiment [8] (at 0.04 µM), 15.6%; in experiment [8] (at 0.2 µM) it was 11.9%; in experiment [8] (at 1 µM), 9%. Moreover, in experiment [8] (at 5 µM), the % of inhibition was -24.4%.

`COc1cc(N(C)c2ccnc3ccc(C(F)(F)F)cc23)cc(OC)c1OC`: the % binding in experiment [9] is 97%.
